The values below come from the supplement of paper PMC6965134.

Structures are written as SMILES. ± gives the standard deviation of the averaged measurements.

This data set can be described thus: TIMS collisional cross section (CCS, N2) of the lipid ion; higher = larger ion cross section. The settings on record: ionization mode: negative, one isomer drawn. As to the method: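 Lipid extracts of human plasma (NIST SRM 1950), mouse liver or HeLa cells were separated by nanoflow C18 LC (30 min gradient) and analysed by TIMS-PASEF on a timsTOF Pro. Ion mobility was calibrated with the Agilent tuning mix (negative mode ions) and converted to collisional cross sections (Mason–Schamp, N2).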
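Note: lipids from MTBE extraction, five replicate injections per sample, 100 ms TIMS ramp spanning 0.6–1.95 Vs/cm², lipid identity assigned from PASEF MS/MS spectra.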

With `CCCCC/C=C\C/C=C\CCCCCCCCCC(=O)OC[C@@H](O)COP(=O)([O-])OCC[N+](C)(C)C` [LPC 20:2_0:0], the “TIMS collisional cross section” value is, setting by setting: (sample type: Human plasma, ion (formula + adduct): [C28H54NO7P+HCOO] 1-) 246.6 Å²; (sample type: Mouse Liver, ion (formula + adduct): [C28H54NO7P+HCOO] 1-) 245.7 ± 0.42 Å². For the compound `CCCCC/C=C\C/C=C\C/C=C\CCCCCCC(=O)OC[C@@H](O)COP(=O)([O-])OCC[N+](C)(C)C` [LPC 20:3_0:0], the “TIMS collisional cross section” value was found to be 245.03 ± 0.87 Å² (sample type: Human plasma, ion (formula + adduct): [C28H52NO7P+HCOO] 1-) and 225.9 Å² (sample type: Human plasma, ion (formula + adduct): [C28H52NO7P-CH3] 1-). Turning to `CCCCC/C=C\C/C=C\C/C=C\C/C=C\CCCC(=O)OC[C@@H](O)COP(=O)([O-])OCC[N+](C)(C)C` [LPC 20:4_0:0], the “TIMS collisional cross section” value reads like this: (sample type: Human plasma, ion (formula + adduct): [C28H50NO7P+HCOO] 1-) 243.1 Å²; (sample type: Human plasma, ion (formula + adduct): [C28H50NO7P-CH3] 1-) 225.9 ± 0.85 Å². For the compound `CC/C=C\C/C=C\C/C=C\C/C=C\C/C=C\CCCC(=O)OC[C@@H](O)COP(=O)([O-])OCC[N+](C)(C)C` [LPC 20:5_0:0], the “TIMS collisional cross section” value runs as follows: (sample type: Human plasma, ion (formula + adduct): [C28H48NO7P+HCOO] 1-) 242.5 Å²; (sample type: Human plasma, ion (formula + adduct): [C28H48NO7P-CH3] 1-) 224.7 Å²; (sample type: Mouse Liver, ion (formula + adduct): [C28H48NO7P+HCOO] 1-) 241.9 Å². As for `CCCCCCCCCCCCCCCCCCCCCC(=O)OC[C@@H](O)COP(=O)([O-])OCC[N+](C)(C)C` [LPC 22:0_0:0], the “TIMS collisional cross section” value came out at 258.6 Å² (sample type: Human plasma, ion (formula + adduct): [C30H62NO7P+HCOO] 1-) and 258.6 Å² (sample type: Mouse Liver, ion (formula + adduct): [C30H62NO7P+HCOO] 1-). Consider `CCCCC/C=C\C/C=C\CCCCCCCCCCCC(=O)OC[C@@H](O)COP(=O)([O-])OCC[N+](C)(C)C` [LPC 22:2_0:0], for which the “TIMS collisional cross section” value (sample type: Human plasma, ion (formula + adduct): [C30H58NO7P+HCOO] 1-) worked out at 254.2 Å². For `CCCCC/C=C\C/C=C\C/C=C\C/C=C\CCCCCC(=O)OC[C@@H](O)COP(=O)([O-])OCC[N+](C)(C)C` [LPC 22:4_0:0], the “TIMS collisional cross section” value is reported as 249 ± 0.42 Å² (sample type: Human plasma, ion (formula + adduct): [C30H54NO7P+HCOO] 1-); 231.5 Å² (sample type: Human plasma, ion (formula + adduct): [C30H54NO7P-CH3] 1-); 248.7 Å² (sample type: Mouse Liver, ion (formula + adduct): [C30H54NO7P+HCOO] 1-). Consider `CC/C=C\C/C=C\C/C=C\C/C=C\C/C=C\C/C=C\CCC(=O)OC[C@@H](O)COP(=O)([O-])OCC[N+](C)(C)C` [LPC 22:6_0:0], for which the “TIMS collisional cross section” value is 246.7 ± 0.42 Å² (sample type: Human plasma, ion (formula + adduct): [C30H50NO7P+HCOO] 1-); 230.4 Å² (sample type: Human plasma, ion (formula + adduct): [C30H50NO7P-CH3] 1-); 247 Å² (sample type: Mouse Liver, ion (formula + adduct): [C30H50NO7P+HCOO] 1-). Consider `CCCCCCCCCCCCCCCCOCC(O)COP(=O)([O-])OCC[N+](C)(C)C` (stereo not given) [LPC O- 16:0], for which the “TIMS collisional cross section” value (sample type: Human plasma, ion (formula + adduct): [C24H52NO6P+HCOO] 1-) was 236.6 Å². As for `CCCCCCCCCCCCCCCCCCOCC(O)COP(=O)([O-])OCC[N+](C)(C)C` (stereo not given) [LPC O- 18:0], where the note is “sample type: Human plasma, ion (formula + adduct): [C26H56NO6P+HCOO] 1-”, the “TIMS collisional cross section” value turned out to be 243.4 Å².

As to `CCCCCC/C=C\CCCCCCCCCCOC[C@@H](O)COP(=O)([O-])OCC[N+](C)(C)C` [LPC O- 18:1_0:0], the “TIMS collisional cross section” value (sample type: Human plasma, ion (formula + adduct): [C26H54NO6P+HCOO] 1-) came to 244 Å². On to `CCCCCCCCCCCCCCCC(=O)OC[C@@H](O)COP(=O)(O)OCCN` [LPE 16:0_0:0], for which the “TIMS collisional cross section” value is, setting by setting: (sample type: Human plasma, ion (formula + adduct): [C21H44NO7P-CH3] 1-) 207.4 Å²; (sample type: Human plasma, ion (formula + adduct): [C21H44NO7P-H] 1-) 214 ± 5.5 Å²; (sample type: Mouse Liver, ion (formula + adduct): [C21H44NO7P-H] 1-) 219.47 ± 10 Å².

On to `CCCCCC/C=C\CCCCCCCC(=O)OC[C@@H](O)COP(=O)(O)OCCN` [LPE 16:1_0:0], for which the “TIMS collisional cross section” value runs as follows: (sample type: Human plasma, ion (formula + adduct): [C21H42NO7P-H] 1-) 208.4 Å²; (sample type: Mouse Liver, ion (formula + adduct): [C21H42NO7P-H] 1-) 208.4 Å².

As for `CCCCCCCCCCCCCCCCCC(=O)OC[C@@H](O)COP(=O)(O)OCCN` [LPE 18:0_0:0], the “TIMS collisional cross section” value came to 214.1 Å² (sample type: Human plasma, ion (formula + adduct): [C23H48NO7P-CH3] 1-); 218.1 Å² (sample type: Human plasma, ion (formula + adduct): [C23H48NO7P-H] 1-); 217.5 ± 0.6 Å² (sample type: Mouse Liver, ion (formula + adduct): [C23H48NO7P-H] 1-). Take `CCCCCCCC/C=C\CCCCCCCC(=O)OC[C@@H](O)COP(=O)(O)OCCN` [LPE 18:1_0:0]: the “TIMS collisional cross section” value (sample type: Human plasma, ion (formula + adduct): [C23H46NO7P-H] 1-) worked out at 215.5 ± 1 Å² and the “TIMS collisional cross section” value (sample type: Mouse Liver, ion (formula + adduct): [C23H46NO7P-H] 1-) was 215.2 ± 1 Å². Turning to `CCCCC/C=C\C/C=C\CCCCCCCC(=O)OC[C@@H](O)COP(=O)(O)OCCN` [LPE 18:2_0:0], the “TIMS collisional cross section” value is 212.88 ± 0.79 Å² (sample type: Human plasma, ion (formula + adduct): [C23H44NO7P-H] 1-) and 212.2 Å² (sample type: Mouse Liver, ion (formula + adduct): [C23H44NO7P-H] 1-).

Regarding `CCCCC/C=C\C/C=C\C/C=C\CCCCC(=O)OC[C@@H](O)COP(=O)(O)OCCN` [LPE 18:3_0:0], the “TIMS collisional cross section” value (sample type: Human plasma, ion (formula + adduct): [C23H42NO7P-H] 1-) came out at 211.6 Å².

For the compound `CCCCCCCCCCCCCCCCCCCC(=O)OC[C@@H](O)COP(=O)(O)OCCN` [LPE 20:0_0:0], the “TIMS collisional cross section” value (sample type: Human plasma, ion (formula + adduct): [C25H52NO7P-H] 1-) is recorded as 224.9 Å² and the “TIMS collisional cross section” value (sample type: Mouse Liver, ion (formula + adduct): [C25H52NO7P-CH3] 1-) stood at 220.9 Å². `CCCCCCCC/C=C\CCCCCCCCCC(=O)OC[C@@H](O)COP(=O)(O)OCCN` [LPE 20:1_0:0]: for the setting “sample type: Mouse Liver, ion (formula + adduct): [C25H50NO7P-H] 1-”, the “TIMS collisional cross section” value is reported as 222.6 Å². Turning to `CCCCC/C=C\C/C=C\C/C=C\CCCCCCC(=O)OC[C@@H](O)COP(=O)(O)OCCN` [LPE 20:3_0:0], under “sample type: Mouse Liver, ion (formula + adduct): [C25H46NO7P-H] 1-”, the “TIMS collisional cross section” value was found to be 217.6 ± 0.42 Å². In the case of `CCCCC/C=C\C/C=C\C/C=C\C/C=C\CCCC(=O)OC[C@@H](O)COP(=O)(O)OCCN` [LPE 20:4_0:0], the “TIMS collisional cross section” value (sample type: Mouse Liver, ion (formula + adduct): [C25H44NO7P-H] 1-) stood at 217.3 Å².

For the compound `CC/C=C\C/C=C\C/C=C\C/C=C\C/C=C\CCCC(=O)OC[C@@H](O)COP(=O)(O)OCCN` [LPE 20:5_0:0], the “TIMS collisional cross section” value reads like this: (sample type: Human plasma, ion (formula + adduct): [C25H42NO7P-H] 1-) 216.7 Å²; (sample type: Mouse Liver, ion (formula + adduct): [C25H42NO7P-H] 1-) 216.7 Å².

As for `CCCCC/C=C\C/C=C\C/C=C\C/C=C\CCCCCC(=O)OC[C@@H](O)COP(=O)(O)OCCN` [LPE 22:4_0:0], the “TIMS collisional cross section” value by setting is: (sample type: Human plasma, ion (formula + adduct): [C27H48NO7P-H] 1-) 223.5 Å²; (sample type: Mouse Liver, ion (formula + adduct): [C27H48NO7P-H] 1-) 222.9 Å². Regarding `CCCCC/C=C\C/C=C\C/C=C\C/C=C\C/C=C\CCC(=O)OC[C@@H](O)COP(=O)(O)OCCN` [LPE 22:5_0:0], the “TIMS collisional cross section” value reads like this: (sample type: Human plasma, ion (formula + adduct): [C27H46NO7P-H] 1-) 222.18 ± 0.25 Å²; (sample type: Mouse Liver, ion (formula + adduct): [C27H46NO7P-H] 1-) 222.05 ± 0.35 Å². In the case of `CC/C=C\C/C=C\C/C=C\C/C=C\C/C=C\C/C=C\CCC(=O)OC[C@@H](O)COP(=O)(O)OCCN` [LPE 22:6_0:0], under “sample type: Human plasma, ion (formula + adduct): [C27H44NO7P-H] 1-”, the “TIMS collisional cross section” value is on record as 222.4 Å². `CCCCCCCC/C=C\CCCCCCCCOC[C@@H](O)COP(=O)(O)OCCN` [LPE O- 18:1_0:0]: the “TIMS collisional cross section” value (sample type: Human plasma, ion (formula + adduct): [C23H48NO6P-H] 1-) is 218.6 ± 2.1 Å². With `CCCCCCCCCCCCCCCCCC/C=C\OC[C@@H](O)COP(=O)(O)OCCN` [LPE O- 20:0_0:0], the “TIMS collisional cross section” value runs as follows: (sample type: Human plasma, ion (formula + adduct): [C25H52NO6P-H] 1-) 223.9 Å²; (sample type: Mouse Liver, ion (formula + adduct): [C25H52NO6P-H] 1-) 222.7 Å². As to `CCCCCCCCCCCCCCCC(=O)OC[C@@H](O)COP(=O)(O)OC[C@@H](O)CO` [LPG 16:0_0:0], the “TIMS collisional cross section” value (sample type: Human plasma, ion (formula + adduct): [C22H45O9P-H] 1-) turned out to be 216.9 Å².
